TGI data for 15 compounds are collected here from PubChem BioAssay (NCI).

Test systems include A498 renal; CAKI-1 renal; HL-60(TB) leukemia; IGROV1 ovarian; MDA-N; NCI/ADR-RES ovarian; OVCAR-5 ovarian; SF-268 CNS; SN12C renal; OVCAR-4 ovarian.
What all share (assay): NCI-60 cell line screen, 48 h

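Five compound concentrations were applied to cells in 96-well plates for 48 hours; endpoints were derived by simple linear interpolation of the resulting dose-response curve. TGI denotes the concentration required for complete inhibition of growth.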

With `Cc1c2cccc-2c(N(C)C)cc2c1[nH]c1ccccc12`, the TGI in the experiment with A498 renal worked out at 37.8 µM; in the experiment with CAKI-1 renal it was 32.7 µM; in the experiment with HL-60(TB) leukemia, 5.74 µM; in the experiment on IGROV1 ovarian, 4.9 µM; in the experiment with MDA-N it was 22.4 µM; in the experiment on NCI/ADR-RES ovarian, 13.4 µM. The TGI came out at 9.35 µM in the experiment with OVCAR-5 ovarian, 16.7 µM in the experiment on SF-268 CNS and 20.2 µM with SN12C renal.

In the case of `COC(=O)c1ccc2[nH]c3c(c2c1)CC(=O)Nc1ccccc1-3`, the TGI was above 100 µM with A498 renal; above 100 µM with CAKI-1 renal; above 100 µM with IGROV1 ovarian; above 100 µM in the experiment with MDA-N; above 100 µM with NCI/ADR-RES ovarian; 40.2 µM in the experiment with OVCAR-4 ovarian. Moreover, the TGI with OVCAR-5 ovarian, with SF-268 CNS and with SN12C renal was above 100 µM throughout.

For the compound `CC(C)(Oc1ccc(C2C[C@H]2Cl)cc1)C(=O)O` (stereo not given in full), the TGI in the experiment with A498 renal, in the experiment with CAKI-1 renal, with HL-60(TB) leukemia, in the experiment with IGROV1 ovarian, in the experiment on MDA-N and with OVCAR-4 ovarian was above 100 µM each time. Further, the TGI in the experiment with OVCAR-5 ovarian and in the experiment with SN12C renal was above 100 µM in each case.

In the case of `C=C(Cl)C(Cl)(CBr)CCC(Cl)C(C)C` (stereo not given), the TGI came out at 14.4 µM with A498 renal; 5.74 µM in the experiment on CAKI-1 renal; 30.8 µM in the experiment with IGROV1 ovarian; 16.3 µM in the experiment on MDA-N; 29.3 µM with NCI/ADR-RES ovarian; 25.4 µM in the experiment on OVCAR-4 ovarian. The values for the TGI in the experiment with OVCAR-5 ovarian, with SF-268 CNS and with SN12C renal were 23.9 µM, 11.5 µM and 33.2 µM, respectively.

Regarding `COC[C@@H](N=Cc1ccc(OC)cc1)C(C)C`, the TGI in the experiment on CAKI-1 renal, in the experiment on IGROV1 ovarian, in the experiment with MDA-N, in the experiment with NCI/ADR-RES ovarian, with OVCAR-4 ovarian and in the experiment with OVCAR-5 ovarian was above 100 µM throughout. The TGI with SF-268 CNS and in the experiment with SN12C renal was above 100 µM throughout.

Turning to `N#C/C(=C/NC(=S)Nc1ccc(S(N)(=O)=O)cc1)C(N)=O`, the TGI with A498 renal, with CAKI-1 renal, in the experiment with HL-60(TB) leukemia, in the experiment with IGROV1 ovarian, in the experiment on MDA-N and in the experiment on OVCAR-4 ovarian was above 100 µM in each case. The TGI in the experiment with OVCAR-5 ovarian, in the experiment on SF-268 CNS and in the experiment on SN12C renal was above 100 µM in each case.

For `C[Si](C)(C)C1=C2C(=O)c3ccccc3C(=O)C2=C([Si](C)(C)C)[C@@H]2CCCC[C@H]12`, the TGI with A498 renal, with CAKI-1 renal, in the experiment with HL-60(TB) leukemia, in the experiment with IGROV1 ovarian, with MDA-N and in the experiment on OVCAR-4 ovarian was above 100 µM each time. Moreover, the TGI with OVCAR-5 ovarian and in the experiment with SN12C renal was above 100 µM each time.

Regarding `CC(=S)NC1C(Oc2ccc3c(C)cc(=O)oc3c2)OC(CO)C(O)C1O` (stereo not given), the TGI in the experiment with A498 renal, with CAKI-1 renal, in the experiment with HL-60(TB) leukemia, in the experiment with IGROV1 ovarian, in the experiment on MDA-N and in the experiment on NCI/ADR-RES ovarian was above 100 µM throughout. Besides, the TGI with OVCAR-4 ovarian, in the experiment with OVCAR-5 ovarian and in the experiment on SN12C renal was above 100 µM in each case.

Consider `c1ccc(C2(c3cc4ccccc4[nH]3)OCCO2)cc1`, for which the TGI in the experiment on A498 renal, with CAKI-1 renal, in the experiment with IGROV1 ovarian, in the experiment with MDA-N, in the experiment on NCI/ADR-RES ovarian and with OVCAR-4 ovarian was above 100 µM throughout. Further, the TGI in the experiment on OVCAR-5 ovarian, with SF-268 CNS and in the experiment on SN12C renal was above 100 µM in each case.

As to `C[N+]12C=CC=C1C(N1CCCC1)c1sc(-c3ccc(Cl)cc3)cc12` (stereo not given), the TGI with A498 renal was 41.4 µM; in the experiment with CAKI-1 renal, above 100 µM; in the experiment on IGROV1 ovarian it was 39 µM; in the experiment with MDA-N, 30.4 µM; with NCI/ADR-RES ovarian it was above 100 µM; with OVCAR-4 ovarian it was 33.4 µM. The TGI with OVCAR-5 ovarian was 35.8 µM; with SF-268 CNS, 34.3 µM; in the experiment on SN12C renal, 27.9 µM.

Regarding `O=C(C(=O)n1ccc2ccccc21)c1c[nH]c2ccccc12`, the TGI with CAKI-1 renal, in the experiment with HL-60(TB) leukemia, with IGROV1 ovarian, with MDA-N, in the experiment on NCI/ADR-RES ovarian and in the experiment on OVCAR-4 ovarian was above 10 µM throughout. Also, the TGI in the experiment on OVCAR-5 ovarian, with SF-268 CNS and in the experiment with SN12C renal was above 10 µM each time.

Regarding `Nc1c2ccccc2nc2ccc(C(=O)Nc3ccc(S(N)(=O)=O)cc3)cc12`, the TGI in the experiment on CAKI-1 renal, in the experiment on HL-60(TB) leukemia, with IGROV1 ovarian, with MDA-N, in the experiment on NCI/ADR-RES ovarian and in the experiment on OVCAR-4 ovarian was above 100 µM each time. Further, the TGI in the experiment on OVCAR-5 ovarian, in the experiment on SF-268 CNS and in the experiment with SN12C renal was above 100 µM throughout.

With `CCO/C=N/C1=C(C#N)C(c2ccc(OC)c(OC)c2)c2c(-c3ccccc3)nn(-c3ccccc3)c2O1` (stereo not given), the TGI with CAKI-1 renal worked out at 33.3 µM; with HL-60(TB) leukemia it was 8.85 µM; with IGROV1 ovarian, 14.8 µM; in the experiment on MDA-N it was 35.5 µM; in the experiment with NCI/ADR-RES ovarian, 48.3 µM; with OVCAR-5 ovarian it was 52.6 µM. Besides, the TGI with SF-268 CNS turned out to be 61.7 µM; with SN12C renal, 38.9 µM.

`C=CC(C)(C)c1cc([C@@H]2COc3cc(O)ccc3C2=O)c(O)c(OC)c1OC`: the TGI came out at 35.4 µM with A498 renal; 44.2 µM with HL-60(TB) leukemia; 26 µM in the experiment with MDA-N; 43 µM with NCI/ADR-RES ovarian; 19.7 µM in the experiment on OVCAR-4 ovarian; 50.4 µM with OVCAR-5 ovarian. Also, the values for the TGI in the experiment with SF-268 CNS and in the experiment with SN12C renal were 51 µM and 31.3 µM, respectively.

As to `O=C1CSC(c2ccc(Cl)cc2)N1c1ccc(-n2c(-c3ccccc3)nc3ccccc3c2=O)cc1` (stereo not given), the TGI in the experiment on A498 renal is above 100 µM; in the experiment on CAKI-1 renal, above 100 µM; in the experiment on IGROV1 ovarian, above 100 µM; in the experiment on MDA-N, above 100 µM; in the experiment with NCI/ADR-RES ovarian, above 100 µM; with OVCAR-4 ovarian it was 41 µM. Besides, the TGI with OVCAR-5 ovarian, in the experiment on SF-268 CNS and with SN12C renal was above 100 µM throughout.
